Test results as given in ChEMBL document CHEMBL1145386, “Structure-based design, synthesis, and study of pyrazolo[1,5-a][1,3,5]triazine derivatives as potent inhibitors of protein kinase CK2” (Bioorg Med Chem Lett, 2007).
Active and inactive are the calls of the source. The rule behind the calls is not given here.

Assays:
HCT-116 = test: Growth inhibition of HCT116 cells by MTT assay; format: functional, cell-based; settings: Homo sapiens
[1] = target: Casein kinase II subunit alpha (Zea mays, UniProt P28523); test: Inhibition of corn CK2 alpha
Chain of Casein kinase II subunit alpha (P28523 whole entry): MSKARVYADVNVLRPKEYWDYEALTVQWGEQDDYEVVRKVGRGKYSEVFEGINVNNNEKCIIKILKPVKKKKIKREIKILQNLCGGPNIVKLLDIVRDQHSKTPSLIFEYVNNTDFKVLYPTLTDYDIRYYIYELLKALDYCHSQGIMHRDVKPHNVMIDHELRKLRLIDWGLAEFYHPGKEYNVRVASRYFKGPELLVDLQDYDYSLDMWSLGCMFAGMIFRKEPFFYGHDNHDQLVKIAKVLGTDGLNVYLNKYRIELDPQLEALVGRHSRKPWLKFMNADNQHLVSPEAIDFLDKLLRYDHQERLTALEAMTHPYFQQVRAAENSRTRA

PC-3 = test: Growth inhibition of PC3 cells; settings: Homo sapiens

| IC50 (HCT-116) | Structure (SMILES) | other results |
| --- | --- | --- |
| 7600 nM | CC(=O)Nc1cccc(Nc2nc(Nc3ccccc3)n3ncc(C)c3n2)c1 | – |
| 43000 nM | CC(=O)Nc1cccc(Nc2nc(NC3CC3)n3ncc(C)c3n2)c1 | – |
| – | N#Cc1cnn2c(Nc3ccccc3)nc(Nc3ccccc3)nc12 | Ki [1]: 24 nM |
| – | CN(c1ccccc1)c1nc(Nc2ccccc2)n2ncc(C#N)c2n1 | Ki [1]: 242 nM |
| 1400 nM | CC(=O)Nc1cccc(Nc2nc(Nc3cccc(C(=O)N4CCCC4)c3)n3ncc(C#N)c3n2)c1 | IC50 (PC-3): 780 nM |
| 1060 nM | CC(=O)Nc1cccc(Nc2nc(Nc3ccc(CN4CCNCC4)cc3)n3ncc(C#N)c3n2)c1 | IC50 (PC-3): 1400 nM |
| 990 nM | CC(=O)Nc1cccc(Nc2nc(Nc3ccccc3)n3ncc(C#N)c3n2)c1 | – |
| 39000 nM | CC(=O)Nc1cccc(Nc2nc(Nc3cccc(C(=O)NCCN(C)C)c3)n3ncc(C#N)c3n2)c1 | – |
| 5500 nM | CC(=O)Nc1cccc(Nc2nc(NC3CCC3)n3ncc(C#N)c3n2)c1 | – |
| 2100 nM | CC(=O)Nc1cccc(Nc2nc(Nc3cccc(OC(F)F)c3)n3ncc(C#N)c3n2)c1 | IC50 (PC-3): 1700 nM |
| 760 nM | CCN(CC)C(=O)c1cccc(Nc2nc(Nc3cccc(NC(C)=O)c3)nc3c(C#N)cnn23)c1 | IC50 (PC-3): 610 nM |
| 1480 nM | CCOc1cccc(Nc2nc(Nc3cccc(NC(C)=O)c3)nc3c(C#N)cnn23)c1 | IC50 (PC-3): 1200 nM |
| – | CC(=O)Nc1cccc(Nc2nc(Nc3cccc(C(=O)O)c3)n3ncc(C#N)c3n2)c1 | Activity (HCT-116): inactive |
| 18000 nM | CC(=O)Nc1cccc(Nc2nc(NC3CC3)n3ncc(Br)c3n2)c1 | – |
| 2200 nM | CCN(CC)Cc1ccc(Nc2nc(Nc3cccc(NC(C)=O)c3)nc3c(C#N)cnn23)cc1 | – |
| 2500 nM | CCN(CC)c1cccc(Nc2nc(Nc3cccc(NC(C)=O)c3)nc3c(C#N)cnn23)c1 | – |

| Structure (SMILES) | IC50 (HCT-116) | other results |
| --- | --- | --- |
| CC(=O)Nc1cccc(Nc2nc(NC3CC3)n3ncc(C#N)c3n2)c1 | 2300 nM | – |
